Patent US20050256132A1, “Use of ER selective NF-kB inhibitors for the treatment of sepsis” (priority 2003, published 2005)
Read-outs that look alike come from different tables or passages of the source.

What was measured:
ER/IL-6 = assay: Endothelial Cell ER/IL-6 Assay, IL-6 promoter luciferase (Table 2); type: cell-based, human; details: ERα infected HAECT-1 cells, IL-1β; for Emax: read-out: IL6 luc % Efficacy; for IC50: read-out: IL6 luc IC50
In short: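 HAECT-1 human aortic endothelial cells adenovirally expressing human ERα (or non-ER-infected controls) received compounds as 2× stocks with 2 ng/ml IL-1β and IL-6 promoter (1250 bp)-luciferase adenovirus for […] at 34 °C. ER/IL-6 was read as lysate luciferase and CK as the rate of A340 increase with CK reagent. IC50/EC50 came from four-parameter logistic fits.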

CK = assay: Creatine kinase assay in ERα infected HAECT-1 cells (Table 2); type: cell-based, human; details: for Emax: HAECT1, read-out: CK % Efficacy
Experimental: T-175 flasks of 100% confluent HAECT-1 cells (immortalized human aortic endothelial cells) were washed with 8 ml of HBSS (HEPES buffered saline solution) and infected for fours hours with 6 ml of a 1:10 dilution of Ad5-wt-hERα virus (an adenovirus transfection vector that mediates CMV promoter driven expression of human ERα) in phenol red free Endothelial Cell Basal medium (Clonetics, San Diego, Calif., Catalog # CC-3129) containing 0.25% bovine serum albumin (EDM-BSA). After four hours, cells were washed with EDM-BSA and incubated overnight in the same medium. Following overnight incubation, cells were washed with EDM-BSA and infected for 2 hours with 6 ml of a 1:10 dilution of Ad5-3x(NFκB).Luc virus (Adenovirus luciferase expression vector driven by three repeats of the MHC NFκb sites 5′ to the thymidine kinase promoter) in EDM-BSA. After two hours, cells were washed and incubated at 34° C. for one hour. Cells were then washed, trypsinized, counted, and resuspended in 95% FBS/5% dimethylsulfoxide at a concentration of […], frozen as 1 or 5 ml aliquots in cryo-vials and stored at −150° C. Control (no ER infection) cells were processed as above without Ad5-wt-hERα virus infection.
ERα infected HAECT-1 cells or control cells were thawed, diluted 42× in warm EBM-BSA, plated into 96-well plates at 0.1 ml/well and incubated for 4 hours at 34° C. Test compounds were added to the cells at 2× stocks in EBM-BSA containing 2 ng/ml IL-1β Ad6-IL-6(1250 bp).Luc virus and plates were returned to the incubator (34° C.). After […], cells were lysed with 50 μl of Promega Cell Culture Lysis reagenet for about 5 minutes at room temperature on a shaker. After lysing, 15 μl of lysate is transferred to luminometer plates for luciferase determination. Luciferase activity is evaluated using a Perkin Elmer Victor2 1420 multilabel counter. Creatine kinase was determined from the rate of increase in A340 following addition of 100 μl of CK assay reagent (Sigma catalog no. 47-10) to the remainder of the cell lysate.
For IC50 and EC50 calculations, mean IL-6, luciferase or CK values versus log10 of the compound concentration were fitted to a four parameter logistic equation. The IC50/EC50 value, ‘Hill slope,’ upper and lower limits of the curve were iteratively estimated.

IC50 (ER/IL-6; Homo sapiens, HAECT1) [µM] | melting point [°C] | EC50 (CK; Homo sapiens, HAECT1) [µM] | IC50 (ER/IL-6) [µM] | EC50 (CK) [µM] | Structure (SMILES) | Emax (ER/IL-6; Homo sapiens, HAECT1) [%] | Emax (CK; Homo sapiens) [%] | IL6 luc % Efficacy (ER/IL-6) [%] | CK % Efficacy (CK) [%]
4 | 140 to 141 | – | – | – | COCCN1CCN(C(=O)C(C#N)(COCc2ccccc2)C(c2ccccc2OC)c2cccc3ccccc23)CC1 (stereo not drawn) [Example 207, 2-[(benzyloxy)methyl]-3-[4-(2-methoxyethyl)piperazin-1-yl]-2-[(2-methoxyphenyl)(1-naphthyl)methyl]-3-oxopropanenitrile] | 63 | -16 | – | –
0.039 | 194.4 to 196.3 | 0.074 | – | – | COC(=O)[C@@](C#N)(Cc1ccccn1)[C@H](c1ccccc1OC)c1cccc2ccccc12 (relative stereo) [Example 143, Methyl (2S*,3S*)-2-cyano-3-(2-methoxyphenyl)-3-(1-naphthyl)-2-(pyridin-2-ylmethyl)propanoate] | 91 | 38 | – | –
0.0055 | 175.6 to 177.6 | 0.0135 | – | – | COC[C@@](C#N)(C(=O)OC)[C@@H](c1ccccc1OC)c1cccc2ccccc12 [Example 151, Methyl (2R,3R)-2-cyano-2-(methoxymethyl)-3-(2-methoxyphenyl)-3-(1-naphthyl)propanoate] | 141 | 30 | – | –
0.832 | 150 | – | – | – | COC[C@@](C#N)(C(=O)N1CCN(c2cnccn2)CC1)[C@@H](c1ccccc1OC)c1cccc2ccccc12 [Example 224, (2R,3R)-2-(methoxymethyl)-3-(2-methoxyphenyl)-3-(1-naphthyl)-2-[(4-pyrazin-2-ylpiperazin-1-yl)carbonyl]propanenitrile] | 77 | -14 | – | –
– | – | – | 1.6 | – | COC[C@](C#N)(C(=O)N1CC=C(c2c[nH]c3ccccc23)CC1)[C@H](c1ccccc1OC)c1cccc2ccccc12 [Example 225] | – | – | 83 | −12
– | – | – | 0.103 | – | COc1ccccc1[C@@H](c1cccc2ccccc12)[C@@](C#N)(COCc1ccccc1)C(=O)N1CCN(c2ncccn2)CC1 [Example 218, (RR,SS)-2-[(benzyloxy)methyl]-3-(2-methoxyphenyl)-3-(1-naphthyl)-2-[(4-pyrimidin-2-ylpiperazin-1-yl)carbonyl]propanenitrile] | – | – | 101 | −12
– | – | – | 0.094 | – | COc1ccccc1C(c1cccc2ccccc12)C(C#N)(Cc1cccnc1)C(=O)N1CC=C(c2c[nH]c3ccccc23)CC1 (stereo not drawn) [Example 178, (RR,SS)-3-[4-(1H-indol-3-yl)-3,6-dihydropyridin-1(2H)-yl]-2-[(2-methoxyphenyl)(1-naphthyl)methyl]-3-oxo-2-(pyridin-3-ylmethyl)propanenitrile] | – | – | 137 | −100
– | – | – | 0.0056 | 0.064 | COCC(C#N)(C(=O)N1CC=C(c2c[nH]c3ccccc23)CC1)C(c1ccccc1OC)c1cccc2ccccc12 (stereo not drawn) [Example 213, (RR,SS)-3-[4-(1H-indol-3-yl)-3,6-dihydropyridin-1(2H)-yl]-2-(methoxymethyl)-2-[(2-methoxyphenyl)(1-naphthyl)methyl]-3-oxopropanenitrile] | – | – | 103 | 26

Second part, the compound before the results:

Structure (SMILES) | IC50 (ER/IL-6; Homo sapiens, HAECT1) [µM] | melting point [°C] | EC50 (CK; Homo sapiens, HAECT1) [µM] | IC50 (ER/IL-6) [µM] | EC50 (CK) [µM] | Emax (ER/IL-6; Homo sapiens, HAECT1) [%] | Emax (CK; Homo sapiens) [%] | IL6 luc % Efficacy (ER/IL-6) [%] | CK % Efficacy (CK) [%]
COC[C@](C#N)(C(=O)NCC(C)(C)C)[C@H](c1ccccc1OC)c1cccc2ccccc12 (relative stereo) [Example 181, (2S*,3S*)-2-cyano-N-(2,2-dimethylpropyl)-2-(methoxymethyl)-3-(2-methoxyphenyl)-3-(1-naphthyl)propanamide] | 0.389 | 184.9 to 185.5 | – | – | – | 104 | 2 | – | –
COc1ccccc1[C@H](c1cccc2ccccc12)[C@@](C)(C#N)C(=O)N1CCC(N2CCOCC2)CC1 [Example 203, (2S,3S)-3-(2-methoxyphenyl)-2-methyl-2-[(4-morpholin-4-ylpiperidin-1-yl)carbonyl]-3-(1-naphthyl)propanenitrile] | 0.00993 | 209 to 210 | – | – | – | 28 | -26 | – | –
COc1ccccc1[C@H](c1cccc2ccccc12)[C@@](C)(C#N)C(=O)N1CCN(CCN(C)C)CC1 [Example 216, (2S)-3-{4-[2-(dimethylamino)ethyl]piperazin-1-yl}-2-[(S)-(2-methoxyphenyl)(1-naphthyl)methyl]-2-methyl-3-oxopropanenitrile] | – | 84 to 85 | – | – | – | 51 | -21 | – | –
COc1ccccc1[C@H](c1cccc2ccccc12)[C@@](C)(C#N)C(=O)N1CCN(c2ncccn2)CC1 [Example 192, (2S,3S)-3-(2-methoxyphenyl)-2-methyl-3-(1-naphthyl)-2-[(4-pyrimidin-2-ylpiperazin-1-yl)carbonyl]propanenitrile] | 0.044 | 153 to 154 | 0.415 | – | – | 176 | – | – | –
COC(=O)[C@@](C#N)(CCN(C)C)[C@H](c1ccccc1OC)c1cccc2ccccc12 (relative stereo) [Example 157, Methyl (2S*)-2-cyano-4-(dimethylamino)-2-[(S*)-(2-methoxyphenyl)(1-naphthyl)methyl]butanoate] | 0.023 | 142 to 144.5 | – | – | – | 110 | -100 | – | –
COCCOCC(C#N)(C(=O)N1CCN(c2ncccn2)CC1)C(c1ccccc1OC)c1cccc2ccccc12 (stereo not drawn) [Example 167, (RR,SS)-2-[(2-Methoxyethoxy)methyl]-3-(2-methoxyphenyl)-3-(1-naphthyl)-2-[(4-pyrimidin-2-ylpiperazin-1-yl)carbonyl]propanenitrile] | – | – | – | 1.23 | – | – | – | 72 | −16
COc1ccccc1C(c1cccc2ccccc12)C(C#N)(Cc1cccnc1)C(=O)N1CCN(c2ncccn2)CC1 (stereo not drawn) [Example 174, (RR,SS)-3-(2-methoxyphenyl)-3-(1-naphthyl)-2-(pyridin-3-ylmethyl)-2-[(4-pyrimidin-2-ylpiperazin-1-yl)carbonyl]propanenitrile] | – | – | – | 1.81 | – | – | – | 49 | 34
COCCOC[C@](C#N)(C(=O)OC)[C@H](c1ccccc1OC)c1cccc2ccccc12 (relative stereo) [Example 144, Methyl (2S*,3S*)-2-cyano-2-[(2-methoxyethoxy)methyl]-3-(2-methoxyphenyl)-3-(1-naphthyl)propanoate] | 0.007 | – | 0.019 | – | – | 103 | – | – | –
COCCOC[C@@](C#N)(C(=O)OC(C)(C)C)[C@@H](c1ccccc1OC)c1cccc2ccccc12 [Example 173, tert-Butyl (RR,SS)-2-cyano-2-[(2-methoxyethoxy)methyl]-3-(2-methoxyphenyl)-3-(1-naphthyl)propanoate] | – | – | – | 0.072 | – | – | – | 124 | −13
COc1ccccc1[C@@H](c1cccc2ccccc12)[C@@](C#N)(Cc1cccnc1)C(=O)N1CCN(c2cnccn2)CC1 [Example 177, (RR,SS)-3-(2-methoxyphenyl)-3-(1-naphthyl)-2-[(4-pyrazin-2-ylpiperazin-1-yl)carbonyl]-2-(pyridin-3-ylmethyl)propanenitrile] | – | – | – | 1.15 | – | – | – | 91 | −32
COc1ccccc1C(c1cccc2ccccc12)C(C#N)(COCc1ccccc1)C(=O)N1CCN(C2CCCCC2)CC1 (stereo not drawn) [Example 217, (RR,SS)-2-[(benzyloxy)methyl]-3-(4-cyclohexylpiperazin-1-yl)-2-[(2-methoxyphenyl) (1-naphthyl)methyl]-3-oxopropanenitrile] | – | – | – | 0.203 | – | – | – | 12 | −37
COCCOC[C@](C#N)(C(=O)OC)[C@H](c1ccccc1OC)c1cccc2ccccc12 [Example 158, Methyl (2S,3S)-2-cyano-2-[(2-methoxyethoxy)methyl]-3-(2-methoxyphenyl)-3-(1-naphthyl)propanoate] | 0.0045 | – | 0.055 | – | – | 121 | 23 | – | –
COc1ccccc1[C@H](c1cccc2ccccc12)[C@@](C)(C#N)C(=O)N1CCC2(CC1)OCCO2 [Example 188] | – | – | – | 0.063 | – | – | – | 107 | 39
